Test system: 323965-272-R-J2-PDC complex spheroid viability
Assay: Anticancer human tumor 323965-272-R-J2-PDC patient-derived pancreatic carcinoma cell line growth inhibition [CLK]
Conditions: for IC50: curve of first compound; for viability, T/C: stronger effect = lower value
Outline: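 Patient-derived tumor cells grown as complex spheroids with HUVEC endothelial cells and mesenchymal stem cells, treated with drug combinations. Concentrations descend in half-log steps from near clinical Cmax, or from 10 microM if Cmax unknown.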

[1] = second compound 0.0316 µM, first compound 0.0316 µM
[2] = second compound 0.0316 µM, first compound 0.1 µM
[3] = second compound 0.0316 µM, first compound 0.316 µM
[4] = second compound 0.0316 µM, first compound 1 µM
[5] = second compound 0.0316 µM, first compound 3.16 µM
[6] = second compound 0.0316 µM, first compound 10 µM
[7] = second compound 0.1 µM, first compound 0.0316 µM
[8] = second compound 0.1 µM, first compound 0.1 µM
[9] = second compound 0.1 µM, first compound 0.316 µM
[10] = second compound 0.1 µM, first compound 1 µM
[11] = second compound 0.1 µM, first compound 3.16 µM
[12] = second compound 0.1 µM, first compound 10 µM
[13] = second compound 0.316 µM, first compound 0.0316 µM
[14] = second compound 0.316 µM, first compound 0.1 µM
[15] = second compound 0.316 µM, first compound 0.316 µM
[16] = second compound 0.316 µM, first compound 1 µM
[17] = second compound 0.316 µM, first compound 3.16 µM
[18] = second compound 0.316 µM, first compound 10 µM
[19] = second compound 1 µM, first compound 0.0316 µM
[20] = second compound 1 µM, first compound 0.1 µM
[21] = second compound 1 µM, first compound 0.316 µM
[22] = second compound 1 µM, first compound 1 µM
[23] = second compound 1 µM, first compound 3.16 µM
[24] = second compound 1 µM, first compound 10 µM
[25] = second compound 3.16 µM, first compound 0.0316 µM
[26] = second compound 3.16 µM, first compound 0.1 µM
[27] = second compound 3.16 µM, first compound 0.316 µM
[28] = second compound 3.16 µM, first compound 1 µM
[29] = second compound 3.16 µM, first compound 3.16 µM
[30] = second compound 3.16 µM, first compound 10 µM
[31] = second compound 10 µM, first compound 0.0316 µM
[32] = second compound 10 µM, first compound 0.1 µM
[33] = second compound 10 µM, first compound 0.316 µM
[34] = second compound 10 µM, first compound 1 µM
[35] = second compound 10 µM, first compound 3.16 µM
[36] = second compound 10 µM, first compound 10 µM
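Also: spheroids exposed to agents for seven days before readout.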
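For viability, T/C in this document: percent of DMSO vehicle control wells so 100% = untreated growth.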

## O=C(c1cc(Cc2n[nH]c(=O)c3ccccc23)ccc1F)N1CCN(C(=O)C2CC2)CC1 + CNC(=O)c1ccc(Nc2nc(OC3CCCC3)c3c(-c4ccc5nc(C)oc5c4)c[nH]c3n2)c(OC)c1
Second compound 0.0316 µM
  IC50: > 10000 nM
Second compound 0.1 µM
  IC50: > 10000 nM
Second compound 0.316 µM
  IC50: > 10000 nM
Second compound 1 µM
  IC50: > 10000 nM
Second compound 3.16 µM
  IC50: < 31.6 nM
Second compound 10 µM
  IC50: < 31.6 nM
[1]
  viability, T/C: 129%
[2]
  viability, T/C: 115%
[3]
  viability, T/C: 107%
[4]
  viability, T/C: 105%
[5]
  viability, T/C: 117%
[6]
  viability, T/C: 92%
[7]
  viability, T/C: 101%
[8]
  viability, T/C: 93.4%
[9]
  viability, T/C: 94.4%
[10]
  viability, T/C: 95.4%
[11]
  viability, T/C: 88.6%
[12]
  viability, T/C: 82.2%
[13]
  viability, T/C: 64.3%
[14]
  viability, T/C: 64.4%
[15]
  viability, T/C: 57.9%
[16]
  viability, T/C: 61.8%
[17]
  viability, T/C: 73.2%
[18]
  viability, T/C: 63.1%
[19]
  viability, T/C: 55.4%
[20]
  viability, T/C: 47.4%
[21]
  viability, T/C: 51.5%
[22]
  viability, T/C: 53.4%
[23]
  viability, T/C: 51.3%
[24]
  viability, T/C: 52.5%
[25]
  viability, T/C: 44%
[26]
  viability, T/C: 52.6%
[27]
  viability, T/C: 46.8%
[28]
  viability, T/C: 48.3%
[29]
  viability, T/C: 40%
[30]
  viability, T/C: 48.8%
[31]
  viability, T/C: 44.3%
[32]
  viability, T/C: 44.7%
[33]
  viability, T/C: 44.5%
[34]
  viability, T/C: 43.8%
[35]
  viability, T/C: 46.7%
[36]
  viability, T/C: 53.4%

## O=c1[nH]cc(F)c(=O)[nH]1 + CNC(=O)c1ccc(Nc2nc(OC3CCCC3)c3c(-c4ccc5nc(C)oc5c4)c[nH]c3n2)c(OC)c1
Second compound 0.0316 µM
  IC50: > 10000 nM
Second compound 0.1 µM
  IC50: > 10000 nM
Second compound 0.316 µM
  IC50: 1900 nM
Second compound 1 µM
  IC50: < 31.6 nM
Second compound 3.16 µM
  IC50: < 31.6 nM
Second compound 10 µM
  IC50: < 31.6 nM
[1]
  viability, T/C: 84.2%
[2]
  viability, T/C: 91.9%
[3]
  viability, T/C: 110%
[4]
  viability, T/C: 91.4%
[5]
  viability, T/C: 73.8%
[6]
  viability, T/C: 55.4%
[7]
  viability, T/C: 85.1%
[8]
  viability, T/C: 80.5%
[9]
  viability, T/C: 72.4%
[10]
  viability, T/C: 65.6%
[11]
  viability, T/C: 57.3%
[12]
  viability, T/C: 53.1%
[13]
  viability, T/C: 59.2%
[14]
  viability, T/C: 59.9%
[15]
  viability, T/C: 57.8%
[16]
  viability, T/C: 48.3%
[17]
  viability, T/C: 50.6%
[18]
  viability, T/C: 41.6%
[19]
  viability, T/C: 43.9%
[20]
  viability, T/C: 41.1%
[21]
  viability, T/C: 48.1%
[22]
  viability, T/C: 38.2%
[23]
  viability, T/C: 34.7%
[24]
  viability, T/C: 29.3%
[25]
  viability, T/C: 40.6%
[26]
  viability, T/C: 36.8%
[27]
  viability, T/C: 37.4%
[28]
  viability, T/C: 36.9%
[29]
  viability, T/C: 29.5%
[30]
  viability, T/C: 27.2%
[31]
  viability, T/C: 37.8%
[32]
  viability, T/C: 42.7%
[33]
  viability, T/C: 38.9%
[34]
  viability, T/C: 37.6%
[35]
  viability, T/C: 31.4%
[36]
  viability, T/C: 31.3%

Reference: PubChem BioAssay AID2060619 (Molecular Pharmacology Branch, DTP, NCI, 2025)
